According to PubChem BioAssay AID248 (DTP/NCI, 2004):
Values joined by “and” are separate entries in the source; they are usually repeats but may differ in a detail not shown here. Identical values can stand only once. Inconclusive results and toxic doses are left out. Rule as the data show it: active = T/C of 150% or more; inactive = T/C below 125%.

System: L1210 leukemia ip in BDF1 mice, survival T/C
Assay: NCI In Vivo Anticancer Drug Screen. Data for tumor model L1210 Leukemia (intraperitoneal) in B6D2F1 (BDF1) mice
Details: endpoint: mean survival time, higher = longer survival
In short: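 Tumor cells were implanted, animals were treated, and survival was followed. The result divides the treated measurement by the vehicle-control measurement.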

[1] = dose: 100.0 mg/kg/injection, schedule: Q01DX001 (ip), vehicle: saline
[2] = dose: 200.0 mg/kg/injection, schedule: Q01DX001 (ip), vehicle: saline
[3] = dose: 25.0 mg/kg/injection, schedule: Q04DX003 (ip), vehicle: Klucel (hydroxypropylcellulose) (HPC)
[4] = dose: 50.0 mg/kg/injection, schedule: Q04DX003 (ip), vehicle: Klucel (hydroxypropylcellulose) (HPC)
[5] = dose: 100.0 mg/kg/injection, schedule: Q04DX003 (ip), vehicle: Klucel (hydroxypropylcellulose) (HPC)
[6] = dose: 100.0 mg/kg/injection, schedule: Q04DX003 (ip), vehicle: saline
[7] = dose: 200.0 mg/kg/injection, schedule: Q04DX003 (ip), vehicle: saline
[8] = dose: 400.0 mg/kg/injection, schedule: Q04DX003 (ip), vehicle: saline
[9] = dose: 200.0 mg/kg/injection, schedule: Q04DX003 (ip), vehicle: Klucel (hydroxypropylcellulose) (HPC)
[10] = dose: 400.0 mg/kg/injection, schedule: Q04DX003 (ip), vehicle: Klucel (hydroxypropylcellulose) (HPC)
[11] = dose: 100.0 mg/kg/injection, schedule: Q04DX002 (ip), vehicle: saline with Tween-80
[12] = dose: 200.0 mg/kg/injection, schedule: Q04DX002 (ip), vehicle: saline with Tween-80
[13] = dose: 400.0 mg/kg/injection, schedule: Q04DX002 (ip), vehicle: saline with Tween-80
[14] = dose: 400.0 mg/kg/injection, schedule: Q01DX001 (ip), vehicle: saline

Measured: T/C

O=C(NC(CSC1CCCCO1)C(=O)O)OCc1ccccc1 (stereo not drawn) (tested in a mixture with another compound)
inactive: dose: 50.0 mg/kg/injection, schedule: Q01DX001 (ip), vehicle: saline 106 % of control | [1] 101 % of control | [2] 97 % of control

CC1(C)N=C(N)N=C(N)N1c1cccc(CCCCc2ccc(Cl)cc2Cl)c1
inactive: dose: 5.0 mg/kg/injection, schedule: Q01DX001 (ip), vehicle: saline 94 % of control | dose: 6.25 mg/kg/injection, schedule: Q04DX003 (ip), vehicle: saline with Tween-80 98 % of control | dose: 10.0 mg/kg/injection, schedule: Q01DX001 (ip), vehicle: saline 100 % of control | dose: 12.5 mg/kg/injection, schedule: Q04DX003 (ip), vehicle: saline with Tween-80 93 % of control | dose: 20.0 mg/kg/injection, schedule: Q01DX001 (ip), vehicle: saline 100 % of control | [3] 101 % of control | dose: 25.0 mg/kg/injection, schedule: Q04DX003 (ip), vehicle: saline with Tween-80 98 % of control | [4] 100 % of control | [5] 93 % of control

CN(C)C(=O)Nc1ccc(Cl)c(Cl)c1
inactive: dose: 100.0 mg/kg/injection, schedule: Q01DX009 (ip), vehicle: saline 94 % of control | [6] 103 % of control | dose: 200.0 mg/kg/injection, schedule: Q01DX009 (ip), vehicle: saline 102 % of control | [7] 102 % of control | dose: 400.0 mg/kg/injection, schedule: Q01DX009 (ip), vehicle: saline 93 % of control | [8] 96 % of control

COC(=O)C(CSc1ccccc1)NC(=O)c1ccccc1 (stereo not drawn)
inactive: [5] 101 % of control | [9] 114 % of control | [10] 96 % of control

ClC1=CC2CCC1C21CC1 (stereo not drawn)
inactive: dose: 50.0 mg/kg/injection, schedule: Q01DX009 (ip), vehicle: saline with Tween-80 105 % of control | dose: 100.0 mg/kg/injection, schedule: Q01DX005 (ip), vehicle: saline with Tween-80 92 % of control | dose: 100.0 mg/kg/injection, schedule: Q01DX009 (ip), vehicle: saline with Tween-80 94 % of control | [11] 87 % of control | dose: 200.0 mg/kg/injection, schedule: Q01DX005 (ip), vehicle: saline with Tween-80 96 % of control | dose: 200.0 mg/kg/injection, schedule: Q01DX009 (ip), vehicle: saline with Tween-80 97 % of control | [12] 100 % of control | [13] 103 % of control

O=C(c1ccccc1)C1C(C(=O)c2ccccc2)N1C1CCCCC1 (stereo not drawn)
inactive: [5] 91 % of control | [9] 91 % of control | [10] 96 % of control

C/C(=C\c1ccccc1)[N+](=O)[O-]
inactive: dose: 1.0 mg/kg/injection, schedule: Q04DX003 (ip), vehicle: Klucel (hydroxypropylcellulose) (HPC) 106 % of control | dose: 4.0 mg/kg/injection, schedule: Q01DX009 (ip), vehicle: Klucel (hydroxypropylcellulose) (HPC) 104 % of control | dose: 8.0 mg/kg/injection, schedule: Q01DX009 (ip), vehicle: Klucel (hydroxypropylcellulose) (HPC) 89 % of control | dose: 12.5 mg/kg/injection, schedule: Q01DX009 (ip), vehicle: Klucel (hydroxypropylcellulose) (HPC) 98 % of control | dose: 12.5 mg/kg/injection, schedule: Q04DX003 (ip), vehicle: Klucel (hydroxypropylcellulose) (HPC) 101 % of control | dose: 16.0 mg/kg/injection, schedule: Q01DX009 (ip), vehicle: Klucel (hydroxypropylcellulose) (HPC) 107 % of control | dose: 20.0 mg/kg/injection, schedule: Q04DX003 (ip), vehicle: Klucel (hydroxypropylcellulose) (HPC) 101 % of control | dose: 25.0 mg/kg/injection, schedule: Q01DX009 (ip), vehicle: Klucel (hydroxypropylcellulose) (HPC) 102 % of control and 104 % of control | [3] 116 % of control | dose: 32.0 mg/kg/injection, schedule: Q01DX009 (ip), vehicle: Klucel (hydroxypropylcellulose) (HPC) 100 % of control | dose: 40.0 mg/kg/injection, schedule: Q04DX003 (ip), vehicle: Klucel (hydroxypropylcellulose) (HPC) 95 % of control | dose: 50.0 mg/kg/injection, schedule: Q01DX009 (ip), vehicle: Klucel (hydroxypropylcellulose) (HPC) 101 % of control and 113 % of control | [4] 106 % of control | dose: 64.0 mg/kg/injection, schedule: Q01DX009 (ip), vehicle: Klucel (hydroxypropylcellulose) (HPC) 110 % of control | dose: 80.0 mg/kg/injection, schedule: Q04DX003 (ip), vehicle: Klucel (hydroxypropylcellulose) (HPC) 100 % of control

BrC#CC1=CCCCC1
inactive: dose: 100.0 mg/kg/injection, schedule: Q01DX009 (ip), vehicle: acetone 88 % of control | [6] 105 % of control | dose: 200.0 mg/kg/injection, schedule: Q01DX009 (ip), vehicle: acetone 86 % of control | [7] 103 % of control | dose: 400.0 mg/kg/injection, schedule: Q01DX009 (ip), vehicle: acetone 108 % of control | [8] 107 % of control

NC(=O)C(Cc1ccc(O)cc1)N(CCO)CCO (stereo not drawn)
inactive: [1] 101 % of control | [2] 101 % of control | [14] 104 % of control

[O-][n+]1cc(-c2ccccc2)cc2ccccc21
inactive: [1] 96 % of control

N/N=C(/C(=O)c1ccccc1)c1ccccc1
inactive: [1] 102 % of control | dose: 100.0 mg/kg/injection, schedule: Q04DX003 (ip), vehicle: saline with Tween-80 100 % of control | [2] 96 % of control | dose: 200.0 mg/kg/injection, schedule: Q04DX003 (ip), vehicle: saline with Tween-80 95 % of control | [14] 96 % of control | dose: 400.0 mg/kg/injection, schedule: Q04DX003 (ip), vehicle: saline with Tween-80 100 % of control

O=C(O)CNC(=O)c1cccc(Cl)c1
inactive: [11] 95 % of control | [12] 95 % of control | [13] 95 % of control

Cc1ccc(-n2c(O)c(N=Nc3ccccc3C)c(=O)n(-c3ccc(Br)cc3)c2=S)cc1
inactive: dose: 37.5 mg/kg/injection, schedule: Q01DX001 (ip), vehicle: Klucel (hydroxypropylcellulose) (HPC) 96 % of control | dose: 75.0 mg/kg/injection, schedule: Q01DX001 (ip), vehicle: Klucel (hydroxypropylcellulose) (HPC) 101 % of control | dose: 150.0 mg/kg/injection, schedule: Q01DX001 (ip), vehicle: Klucel (hydroxypropylcellulose) (HPC) 110 % of control

Cc1cc(Cl)ccc1OC(=O)Nc1c(C)cccc1C
inactive: dose: 100.0 mg/kg/injection, schedule: Q01DX009 (ip), vehicle: Klucel (hydroxypropylcellulose) (HPC) 101 % of control | [5] 98 % of control | dose: 200.0 mg/kg/injection, schedule: Q01DX009 (ip), vehicle: Klucel (hydroxypropylcellulose) (HPC) 101 % of control | [9] 103 % of control | dose: 400.0 mg/kg/injection, schedule: Q01DX009 (ip), vehicle: Klucel (hydroxypropylcellulose) (HPC) 89 % of control | [10] 101 % of control

Cc1[nH]c2ccccc2c1C1=CC(=O)c2ccccc2C1=O
inactive: [1] 93 % of control | [2] 112 % of control | [14] 98 % of control
